One series concerns the target T1, hERG (Homo sapiens, UniProt Q12809).
T1 construct: purchased ThermoFisher; host or cells: hERG cell membrane supplied with the kit
As to the kind of experiment: hERG fluorescence polarization inhibition experiment. As to conditions: hERG cell membrane, 25° C. 2 hours, read-out: hERG (IC50 range, competitive binding vs tracer). The protocol:
hERG (Ether-a-go-go-related Gene Potassium Channel) Inhibition Experiment
Reagent: Predictor™ hERG Fluorescence Polarization Assay Kit, Manufacturer: ThermoFisher
The above test kit was used to evaluate the potential of the compound for inducing heart QT prolongation. According to the method as indicated in the specification of the test kit, the test compound, the positive control (E4031) and negative control (Experimental buffer solution) in the kit were added to a microwell plate containing hERG cell membrane, and then a tracer having high affinity to hERG was added. The microwell plate was then incubated at 25° C. for 2 hours, a BMG PHAREStar polyfunctional enzyme marker was used to test the variations in the fluorescent polarization value. By calculating the percent inhibition rates (%) at different concentrations, the range of the half inhibition concentration (IC50) was determined:
Percent inhibition rate (%)=(1-(mP of the test compound-mP of 30 μM E4031)/(mP of experimental buffer solution-mP of 30 μM E4031))*100.

The next series deals with T2, VAP-1 (Homo sapiens, UniProt Q16853).
T2 construct: purchased R&D Systems
T2 sequence (Q16853 1-763): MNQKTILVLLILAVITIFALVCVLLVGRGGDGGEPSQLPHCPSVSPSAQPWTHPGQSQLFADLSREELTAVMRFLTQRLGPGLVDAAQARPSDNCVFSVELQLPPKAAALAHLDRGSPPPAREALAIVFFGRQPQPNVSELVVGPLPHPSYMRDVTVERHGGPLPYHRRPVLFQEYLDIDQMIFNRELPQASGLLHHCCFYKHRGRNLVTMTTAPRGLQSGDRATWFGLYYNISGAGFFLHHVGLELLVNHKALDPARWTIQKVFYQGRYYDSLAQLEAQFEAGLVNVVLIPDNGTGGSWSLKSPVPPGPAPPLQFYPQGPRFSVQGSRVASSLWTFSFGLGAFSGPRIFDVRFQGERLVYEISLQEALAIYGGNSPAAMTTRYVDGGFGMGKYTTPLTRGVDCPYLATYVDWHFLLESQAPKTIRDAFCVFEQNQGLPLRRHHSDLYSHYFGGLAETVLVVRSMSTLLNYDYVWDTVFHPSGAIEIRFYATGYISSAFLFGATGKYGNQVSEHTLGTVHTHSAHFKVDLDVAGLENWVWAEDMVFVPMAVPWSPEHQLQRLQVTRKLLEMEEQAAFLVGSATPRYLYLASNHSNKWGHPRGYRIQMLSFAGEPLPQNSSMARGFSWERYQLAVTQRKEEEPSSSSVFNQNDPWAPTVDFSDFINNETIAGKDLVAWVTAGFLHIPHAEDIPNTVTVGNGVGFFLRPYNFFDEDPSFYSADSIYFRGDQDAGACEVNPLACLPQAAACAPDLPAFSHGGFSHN
As to the kind of experiment: Inhibition of the enzymatic activity of VAP-1 in vitro (Amplex Red). As to conditions: VAP-1 protein about 20 nM, 10 min pre-incubation, benzylamine substrate; read-out: IC50, inhibition against the enzymatic activity of VAP-1. Format: biochemical. The method, then: Inhibition Experiment Against the Enzymatic Activity of VAP-1(Vascular Adhesion Protein 1) in vitro
Test kit: Amplex® Red Monoamine Oxidase Assay, Manufacturer: ThermoFisher
Reaction buffer solution: 50 mM PBS, pH 7.4
Enzyme: VAP-1, Manufacturer: R&D Systems
VAP-1 protein (about 20 nM) and different concentrations of the test compound were pre-incubated at room temperature for 10 minutes, followed by an addition of […] benzylamine hydrochloride, 1 U/mL HRP and 200 μM Amplex Red reagent according to the specification of the test kit to start the reaction. The reaction plate was placed in the enzyme marker, and in kinetic mode, fluorescence signals were measured at Ex/Em=540/590 nm. The relative inhibition activity of each concentration group was calculated, wherein the ratio (slope) of fluorescence signal to reaction time in the linear range is the reaction rate, the vehicle group (DMSO) is the negative control, and the reaction buffer solution group (without enzymes and the compounds) is the blank control. The half inhibition concentration (IC50) of the compound was calculated according to four-parameter model fitting curve.

Structures are written as SMILES. Structures can show the parent of a compound that is named as a salt.

These results are taken from US20200087248A1, “Fluoroallylamine Derivative And Use Thereof” (SICHUAN KELUN-BIOTECH BIOPHARMACEUTICAL CO., LTD., priority 2017, published 2020).

T1 sequence (Q12809 whole entry): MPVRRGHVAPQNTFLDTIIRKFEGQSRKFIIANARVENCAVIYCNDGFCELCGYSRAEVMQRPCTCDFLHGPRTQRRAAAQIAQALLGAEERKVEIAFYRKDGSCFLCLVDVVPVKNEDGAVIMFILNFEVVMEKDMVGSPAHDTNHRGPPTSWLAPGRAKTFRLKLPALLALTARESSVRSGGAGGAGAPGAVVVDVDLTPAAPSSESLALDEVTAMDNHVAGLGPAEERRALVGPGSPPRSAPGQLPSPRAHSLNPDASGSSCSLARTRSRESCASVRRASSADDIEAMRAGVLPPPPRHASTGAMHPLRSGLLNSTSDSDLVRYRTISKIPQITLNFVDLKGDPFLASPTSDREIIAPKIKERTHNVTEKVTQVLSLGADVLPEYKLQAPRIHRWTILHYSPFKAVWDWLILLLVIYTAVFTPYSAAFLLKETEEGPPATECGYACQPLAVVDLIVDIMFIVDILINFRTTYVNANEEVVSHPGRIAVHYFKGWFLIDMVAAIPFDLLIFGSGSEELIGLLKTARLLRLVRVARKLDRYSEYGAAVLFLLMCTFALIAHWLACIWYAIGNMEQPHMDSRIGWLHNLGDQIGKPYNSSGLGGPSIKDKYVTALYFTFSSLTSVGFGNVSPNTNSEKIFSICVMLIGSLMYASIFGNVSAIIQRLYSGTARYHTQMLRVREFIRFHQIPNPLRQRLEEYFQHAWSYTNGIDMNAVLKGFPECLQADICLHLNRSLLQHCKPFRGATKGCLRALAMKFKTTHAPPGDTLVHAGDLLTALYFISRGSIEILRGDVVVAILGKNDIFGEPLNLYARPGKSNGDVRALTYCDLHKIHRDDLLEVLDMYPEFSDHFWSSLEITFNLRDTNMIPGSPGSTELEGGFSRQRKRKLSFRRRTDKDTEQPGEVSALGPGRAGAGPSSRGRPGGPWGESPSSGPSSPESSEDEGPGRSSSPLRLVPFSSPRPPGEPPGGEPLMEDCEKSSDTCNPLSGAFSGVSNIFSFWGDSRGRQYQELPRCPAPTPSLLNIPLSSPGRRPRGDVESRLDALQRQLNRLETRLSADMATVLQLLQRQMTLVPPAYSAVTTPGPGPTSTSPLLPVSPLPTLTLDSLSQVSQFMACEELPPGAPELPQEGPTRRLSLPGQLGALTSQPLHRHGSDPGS

For the molecule `Cc1ccc(N(C)C(=O)c2ccc(OCC(=CF)CN)cc2)cc1` [TM67, N-methyl-N-p-methylphenyl-4-((2-aminomethyl-3-fluoroallyl)oxy)-benzamide trifluoroacetate], the IC50 (in general, the point on the concentration scale where inhibition reaches its midpoint) is above 30000 nM on hERG and 11.5 ± 1.3 nM on VAP-1.

For the molecule `NC/C(=C\F)COc1ccc(-c2nc3ccc(Cl)cc3s2)cc1` [TM41-E, (E)-2-(4-(6-chloro-benzothiazol-2-yl)phenoxymethyl)-3-fluoroallylamine trifluoroacetate], the IC50 at VAP-1 stood at 3.1 ± 0.5 nM.

For `NCC(=CF)COc1ccc(C(=O)N2CCc3ccccc3[C@@H]2c2ccccc2)cc1` [TM69, (S)-(4-(2-aminomethyl)-3-fluoroallyloxy)phenyl)-(1-phenyl-3,4-dihydroisoquinol-2(1H)-yl)-methanone trifluoroacetate], the IC50 on VAP-1 is 10.4 ± 1.4 nM.

Regarding `NC/C(=C/F)COc1ccc(-c2nc3ccc(Cl)cc3s2)cc1F` [TM74-Z, (Z)-2-(4-(6-chloro-benzothiazol-2-yl)-2-fluorophenoxymethyl)-3-fluoroallylamine trifluoroacetate trifluoroacetate], the IC50 on VAP-1 was found to be 5.3 ± 0.2 nM.

As to `NCC(=CF)COc1ccc(-c2ncccn2)cc1` [TM39, 2-(4-(2-pyrimidyl)phenoxymethyl)-3-fluoroallylamine trifluoroacetate], the IC50 at hERG is above 30000 nM; at VAP-1, 1 ± 0.1 nM.

On to `NC/C(=C\F)COc1ccc(C(=O)N2CCc3c(Cl)cccc3C2)cc1F` [TM73-E, (E)-(4-((2-aminomethyl-3-fluoroallyl)oxy)-3-fluorophenyl)-(5-chloro-3,4-di-hydroisoquinoline-2(1H)-yl)methanone trifluoroacetate], for which, at VAP-1, the IC50 came to 4.2 ± 0.3 nM.

As to `NC/C(=C\F)COc1ccc2c(c1)CCNC2=O` [TM26-E, (E)-6-((2-aminomethyl-3-fluoroallyl)oxy)-3,4-dihydroisoquinolin-1(2H)-one trifluoroacetate], the IC50 on hERG is above 10000 nM; at VAP-1, 9.9 ± 1.2 nM.

Turning to `CN(C)c1cccc(NC(=O)c2ccc(OCC(=CF)CN)cc2)c1` [TM62, N-(3-dimethylaminophenyl)-4-(2-aminomethyl-3-fluoroallyloxy)-benzamide trifluoroacetate], the half-inhibitory concentration (IC50) on hERG was above 30000 nM; on VAP-1, 1.8 ± 0.2 nM.

On to `NC/C(=C\F)COc1ccc(C(=O)N2CCC(c3ccccc3)CC2)cc1` [TM44-E, (E)-(4-((2-aminomethyl-3-fluoroallyl)oxy)phenyl)-(4-phenylpiperidine-1-yl) methanone trifluoroacetate], for which the IC50 on VAP-1 came to 12.9 ± 4.4 nM.

As to `NC/C(=C\F)COc1ccc(-c2nc3ccc(Cl)cc3s2)cc1F` [TM74-E, (E)-2-(4-(6-chloro-benzothiazol-2-yl)-2-fluorophenoxymethyl)-3-fluoroallylamine trifluoroacetate trifluoroacetate], the IC50 on VAP-1 was found to be 3.2 ± 0.2 nM.

Consider `NC/C(=C\F)COc1ccc(C(=O)N2CCc3ccccc3C2)cc1` [TM45-E, (E)-(4-((2-aminomethyl-3-fluoroallyl)oxy)phenyl)-(3,4-di hydroisoquinoline-2 (1H)-yl)methanone trifluoroacetate], for which the IC50 at hERG was above 10000 nM; on VAP-1, 2.4 ± 0.7 nM.

`NC/C(=C/F)COc1ccc(-c2nc3ccccc3[nH]2)cc1` [TM42-Z, (Z)-2-(4-(1H-benzoimidazol-2-yl)phenoxymethyl)-3-ftuoroallylamine trifluoroacetate]: the IC50 at hERG is above 10000 nM; on VAP-1, 1.5 ± 0.1 nM.

`NC/C(=C/F)COc1ccc(C(=O)N2CCc3ccccc3C2)cc1` [TM45-Z, (Z)-(4-((2-aminomethyl-3-fluoroallyl)oxy)phenyl)-(3,4-dihydroiso-quinoline-2(1H)-yl)methanone trifluoroacetate]: the IC50 on hERG was above 10000 nM; on VAP-1, 1.1 ± 0.1 nM.

Regarding `NC/C(=C/F)COc1ccc(C(=O)N2CCC(c3ccccc3)CC2)cc1` [TM44-Z, (Z)-(4-((2-aminomethyl-3-fluoroallyl)oxy)phenyl)-(4-phenylpiperidine-1-yl) methanone trifluoroacetate], the IC50 at VAP-1 stood at 9.7 ± 0.9 nM.

`NC/C(=C/F)COc1ccc(C(=O)N2CCC(c3ccccc3)CC2)cc1F` [TM48-Z, (Z)-(4-((2-(aminomethyl)-3-fluoroallyl)oxy)-3-fluorophenyl)-(4-phenylpiperidin-1-yl)methanone trifluoroacetate]: at VAP-1, the IC50 came to 10.6 ± 1.4 nM.

As to `Cc1csc(-c2ccc(OCC(=CF)CN)cc2)n1` [TM70, 2-(4-(4-methylthiazolyl-2-phenoxy)methyl)-3-fluoroallylamine trifluoroacetate], the IC50 was above 30000 nM at hERG and 0.2 nM on VAP-1.

Take `NC/C(=C/F)COc1ccc(-c2nc3ccc(Cl)cc3s2)cc1` [TM41-Z, (Z)-2-(4-(6-chloro-benzothiazol-2-yl)phenoxymethyl)-3-fluoroallylamine trifluoroacetate]: the IC50 at VAP-1 was determined as 3.5 ± 0.4 nM.

As to `NC/C(=C\F)COc1ccc(C(=O)Nc2ccc(F)cc2)cc1Cl` [TM65-E, (E)-N-(4-fluorophenyl)-4-((2-aminomethyl-3-fluoroallyl)oxy)-3-chloro-benzamide trifluoroacetate], on VAP-1, the IC50 turned out to be 4.1 ± 0.7 nM.

Take `NCC(=CF)COc1ccc(C(=O)N2Cc3ccc(Cl)cc3C2)cc1` [TM71, (4-(2-aminomethyl-3-fluoroallyloxy)phenyl)-(5-chloroisoindolin-2-yl)-methanone trifluoroacetate]: the IC50 at VAP-1 amounted to 2.4 ± 0.2 nM.

`NCC(=CF)COc1ccc(C(=O)N2CCc3cc(C(F)(F)F)ccc3C2)cc1` [TM68, (4-(2-aminomethyl-3-fluoroallyloxy)phenyl)-(6-trifluoromethyl-3,4-dihydroisoquinol-2(1H)-yl)-methanone trifluoroacetate]: the IC50 on VAP-1 worked out at 9.9 ± 1.8 nM.

For the molecule `NC/C(=C\F)COc1ccc(C(=O)N2CCC(c3ccccc3)CC2)cc1F` [TM48-E, (E)-(4-((2-(aminomethyl)-3-fluoroally)oxy)-3-fluorophenyl)-(4-phenylpiperidin-1-yl)methanone trifluoroacetate], the half-inhibitory concentration (IC50) on VAP-1 was 9.2 ± 1.1 nM.

Turning to `NC/C(=C/F)COc1ccc2c(c1)CN(Cc1ccc(Cl)cc1)C2=O` [TM33-Z, (Z)-5-((2-aminomethyl-3-fluoroallyl)oxy)-2-(4-chlorobenzyl)isoindolin-1-one], the IC50 at VAP-1 was 6.3 ± 1.2 nM.

Consider `NC/C(=C/F)COc1ccc(C(=O)N2CCc3c(Cl)cccc3C2)cc1F` [TM73-Z, (Z)-(4-((2-aminomethyl-3-fluoroallyl)oxy)-3-fluorophenyl)-(5-chloro-3,4-di-hydroisoquinoline-2(1H)-yl)methanone trifluoroacetate], for which, on VAP-1, the IC50 is 3.7 ± 0.3 nM.

For the molecule `NCC(=CF)COc1ccc(C(=O)N2CCC(c3ccccc3)CC2)cc1F` [TM48, (4-((2-aminomethyl-3-fluoroallyl)oxy)-3-fluorophenyl)-(4-phenylpiperidin-1-yl)methanone trifluoroacetate], at VAP-1, the IC50 amounted to 6.5 ± 0.5 nM.

Turning to `NCC(=CF)COc1ccc(C(=O)Nc2cccc3ccccc23)cc1` [TM8, 4-((2-(aminomethyl)-3-fluoroallyl)oxy)-N-(naphthyl)benzoamide trifluoroacetate], on VAP-1, the IC50 stood at 2.2 ± 0.1 nM.

With `NC/C(=C/F)COc1ccc(C(=O)Nc2ccc(F)cc2)cc1Cl` [TM65-Z, (Z)-N-(4-fluorophenyl)-4-((2-aminomethyl-3-fluoroallyl)oxy)-3-chloro-benzamide trifluoroacetate], the IC50 on VAP-1 is 1.7 ± 0.3 nM.

As for `NCC(=CF)COc1ccc(C(=O)N2CCc3ccccc3C2)cc1F` [TM72, (4-((2-aminomethyl-3-fluoroallyl)oxy)-3-fluorophenyl)-(3,4-tetrahydroisoquinoline-2(1H)-yl)methanone trifluoroacetate], on VAP-1, the IC50 turned out to be 3.4 ± 0.5 nM.
